Experimental data: patent publication US11332485B2, “Penicillin-binding protein inhibitors” (priority 2017, dated 2022)
pEC50: −log10 of the molar value.

Legend:
S. aureus ATCC 29213 = experiment: Broth microdilution MIC assay; type: cell-based; details: Staphylococcus aureus, ATCC29213; broth microdilution, 16-20 hours at 37° C.; read-out: S. aureus 29213 MIC
Method in brief: (§1)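 Visual no-growth endpoint defines the MIC. Inoculum of 5×10^5 CFU/mL in divalent-cation-supplemented Mueller-Hinton broth was exposed to 2-fold dilution series of compound, then incubated 16-20 hours at 37° C per CLSI.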

[1] = tested on: hyper-permeable E. coli 901C; experiment: Broth microdilution MIC assay; type: cell-based; details: Escherichia coli, read-out: E. coli 901C MIC
Method in brief: as §1

[2] = target: T1, PBP3 from Escherichia coli (Escherichia coli, UniProt P0AD68); experiment: Fluorescence polarization competition binding assay with Bocillin-FL
T1 construct: made in house
Description: To determine the ability of boronic acid-based test PBP inhibitors to bind Penicillin Binding Proteins (PBPs), Bocillin-FL (fluorescently-labeled penicillin V; ThermoFisher Scientific) was used in a fluorescence polarization (FP) competition binding assay to assess boronic acid PBP inhibitor binding to PBP3 from Escherichia coli. PBP3 from Escherichia coli was cloned and purified as described previously (King, D. T, et al., ACS Infectious Diseases 2015, 1, 175-184). To establish assay conditions for competition binding, an enzyme titration/saturation binding experiment was performed. Bocillin-FL was prepared at […] in a buffer comprised of 50 mM Hepes (pH 8.0), 300 mM NaCl and 5% (v/v) glycerol. Saturation binding was performed by mixing […] of PBP3 ranging in concentrations from […] with 40 μl of the 0.2 μM Bocillin-FL solution, in individual wells of a black 384-well microplate. FP was measured immediately upon addition of PBP3 (Ex, Em), using a Cytation3 (BioTek) microplate reader and measured continuously for 60 minutes. […] The competition binding assay was validated using the beta-lactam ampicillin, with Bocillin-FL at a final concentration of 0.1 μM, PBP3 at a final concentration of 1.5 μM and concentrations of ampicillin from 0-1000 μM. PBP3 was incubated with ampicillin at different concentrations in a black 384-well microplate (Corning) for 30 minutes, then Bocillin-FL added and the FP immediately measured for 60 minutes. […] Binding assays for boronic acid PBP inhibitors were performed in an identical fashion. Representative results are shown in Table 3, where A represents a potency of >500 μM, B represents a potency between 30 μM and 500 μM inclusive, and C represents a potency of <30 μM. NT=Not Tested.

[3] = tested on: E. coli DH5α/pLBII-CTX-M15; experiment: Broth microdilution MIC assay, engineered strain producing CTX-M15; type: cell-based, Escherichia coli; details: Escherichia coli, read-out: E. coli DH5α/pLBII-CTX-M15 Microbiological Activity (MIC)
Method in brief: (§2)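 CLSI broth microdilution in cation-supplemented Mueller-Hinton broth, 2-fold compound dilutions, 5×10^5 CFU/mL inoculum, 16-20 h at 37° C, MIC read visually as lowest concentration without growth. E. coli DH5α carries CTX-M15 on pLBII under Lac promoter, or empty pLBII as control.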

E. coli DH5α/pLBII = experiment: Broth microdilution MIC assay, empty vector control strain; type: cell-based; details: Escherichia coli, read-out: E. coli DH5α/pLBII Microbiological Activity (MIC)
Method in brief: as §2

T1 sequence (P0AD68 1-577): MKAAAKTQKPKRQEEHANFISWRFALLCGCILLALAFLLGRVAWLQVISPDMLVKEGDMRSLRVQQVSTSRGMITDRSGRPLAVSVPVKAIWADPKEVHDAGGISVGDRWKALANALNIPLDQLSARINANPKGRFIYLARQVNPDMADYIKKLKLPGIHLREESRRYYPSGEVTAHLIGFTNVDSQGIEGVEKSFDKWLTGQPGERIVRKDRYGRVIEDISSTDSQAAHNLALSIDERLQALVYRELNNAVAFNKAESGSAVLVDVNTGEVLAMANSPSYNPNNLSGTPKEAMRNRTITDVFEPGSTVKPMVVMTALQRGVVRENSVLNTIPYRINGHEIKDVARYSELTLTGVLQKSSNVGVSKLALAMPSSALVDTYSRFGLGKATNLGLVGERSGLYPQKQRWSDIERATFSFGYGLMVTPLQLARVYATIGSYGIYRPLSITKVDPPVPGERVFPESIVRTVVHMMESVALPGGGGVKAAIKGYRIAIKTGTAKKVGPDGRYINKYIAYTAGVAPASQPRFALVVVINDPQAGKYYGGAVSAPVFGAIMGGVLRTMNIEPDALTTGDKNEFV

SMILES	MIC (S. aureus ATCC 29213) [µg/mL]	MIC [1] [µg/mL]	pEC50 [2]	MIC [3] [µg/mL]	MIC (E. coli DH5α/pLBII) [µg/mL]
CCN1CCN(C(=O)N[C@@H](C(=O)N[C@H]2Cc3cccc(C(=O)O)c3OB2O)c2ccccc2)C(=O)C1=O [Example 11, (R)-3-((R)-2-(4-ethyl-2,3-dioxopiperazine-1-carboxamido)-2-phenylacetamido)-2-hydroxy-3,4-dihydro-2H-benzo[e][1,2]oxaborinine-8-carboxylic acid]	64 to 128	< 64	> 4.52	32 to 64	32 to 64
CCN1CCN(C(=O)N[C@@H](CO)C(=O)N[C@H]2Cc3cccc(C(=O)O)c3OB2O)C(=O)C1=O [Example 32, (R)-3-((S)-2-(4-Ethyl-2,3-dioxopiperazine-1-carboxamido)-3-hydroxy-propanamido)-2-hydroxy-3,4-dihydro-2H-benzo[e][1,2]oxaborinine-8-carboxylic acid]	> 128	> 128	< 3.30	> 512	> 512
Nc1nc(C(NC(=O)N2CCN(Cc3ccccc3)C(=O)C2=O)C(=O)N[C@H]2Cc3cccc(C(=O)O)c3OB2O)cs1 (stereo partly drawn) [Example 49, (3R)-3-(2-(2-aminothiazol-4-yl)-2-(4-benzyl-2,3-dioxopiperazine-1-carboxamido)acetamido)-2-hydroxy-3,4-dihydro-2H-benzo[e][1,2]oxaborinine-8-carboxylic acid]	64 to 128	< 64	> 4.52	128 to 256	128 to 256
CCN1CCN(C(=O)N[C@H](CCC(N)=O)C(=O)N[C@H]2Cc3cccc(C(=O)O)c3OB2O)C(=O)C1=O [Example 50, (R)-3-((R)-5-amino-2-(4-ethyl-2,3-dioxopiperazine-1-carboxamido)-5-oxopentanamide)-2-hydroxy-3,4-dihydro-2H-benzo[e][1,2]oxaborinine-8-carboxylic acid]	> 128	< 64	< 3.30	32 to 64	32 to 64
Nc1nc(C(NC(=O)N2CCN(CCF)C(=O)C2=O)C(=O)N[C@H]2Cc3cccc(C(=O)O)c3OB2O)cs1 (stereo partly drawn) [Example 52, (3R)-3-(2-(2-aminothiazol-4-yl)-2-(4-(2-fluoroethyl)-2,3-dioxopiperazine-1-carboxamido)acetamido)-2-hydroxy-3,4-dihydro-2H-benzo[e][1,2]oxaborinine-8-carboxylic acid]	64 to 128	< 64	3.30 to 4.52	8 to 16	8 to 16
CCCCN1CCN(C(=O)NC(C(=O)N[C@H]2Cc3cccc(C(=O)O)c3OB2O)c2csc(N)n2)C(=O)C1=O (stereo partly drawn) [Example 53, (3R)-3-(2-(2-aminothiazol-4-yl)-2-(4-butyl-2,3-dioxopiperazine-1-carboxamido)acetamido)-2-hydroxy-3,4-dihydro-2H-benzo[e][1,2]oxaborinine-8-carboxylic acid]	64 to 128	< 64	> 4.52	32 to 64	32 to 64
CC(C)N1CCN(C(=O)NC(C(=O)N[C@H]2Cc3cccc(C(=O)O)c3OB2O)c2csc(N)n2)C(=O)C1=O (stereo partly drawn) [Example 55, (3R)-3-(2-(2-aminothiazol-4-yl)-2-(4-isopropyl-2,3-dioxopiperazine-1-carboxamido)acetamido)-2-hydroxy-3,4-dihydro-2H-benzo[e][1,2]oxaborinine-8-carboxylic acid]	64 to 128	< 64	3.30 to 4.52	8 to 16	8 to 16
CCCCCCCN1CCN(C(=O)NC(C(=O)N[C@H]2Cc3cccc(C(=O)O)c3OB2O)c2csc(N)n2)C(=O)C1=O (stereo partly drawn) [Example 94, (3R)-3-(2-(2-aminothiazol-4-yl)-2-(4-heptyl-2,3-dioxopiperazine-1-carboxamido)acetamido)-2-hydroxy-3,4-dihydro-2H-benzo[e][1,2]oxaborinine-8-carboxylic acid]	64 to 128	< 64	> 4.52	128 to 256	–
